How the values were obtained:
[1] = tested on: women with facial wrinkles; assay: Clinical anti-wrinkle study, preorbital area, 3D skin topography / confocal microscopy of silicone impressions; format: in vivo; conditions: O/W emulsion twice a day; for Wrinkles reduction (%) 4 wrinkles: at 4 weeks
Description: The clinical study was conducted on 40 women with facial wrinkles between 50 and 60 years of age. All volunteers were healthy and without any systemic or skin disease.
Wrinkles were measured using a topographic skin measurement device, a Bio 3D Structure Light Scanner technology, which performs a 3D reconstruction of the image in silicone (ANTERA 3D® and software (Miravex, Ireland).
The patients were divided into two groups, which applied the assigned O/W emulsions twice a day for two months. One group (1) applied a free Acetylhexapeptide-8 emulsion on one side of the preorbital area and an emulsion with Acetylhexapeptide-8 encapsulated in PCL and chitosan on the other side. The second group applied an O/W emulsion with free HA on one area of a preorbital area and another of the cosmetic composition of the present invention (Acetylhexapeptide-8, HA, PCL and chitosan) on the contralateral side. All participants were asked not to use any cosmetics containing ingredients that could interfere with the wrinkle status of the skin during the study period, nor were they subjected to exposure to direct sunlight.
Before the first application, at 4 and 8 weeks of use, silicone impressions were taken and processed by confocal laser scanning microscopy to evaluate the progress of wrinkles. The maximum depth values within the analysis area were taken as representative values of wrinkles, and the percentage reduction of these values before and after application were calculated as the percentage improvement of skin wrinkles.
In this study, measurements of the main roughness parameters such as mean roughness volume and area affected by roughness were obtained. The average roughness volume is the average (three-dimensional) dimension of the depression of the cutaneous microrelief measured in mm^3. The area affected by roughness is the roughness portion of the measured skin area (two-dimensional, measured in mm^2). The improvement was calculated as the percentage change between the images taken before the treatments and two months […].
Reflection mode confocal microscopy and three-dimensional analysis were used to evaluate the different parameters.
For this purpose, the 40 female volunteers were divided into two groups, and each group applied twice daily for 2 months two assigned emulsions, one to each eye in the same preorbital area. Before treatment, at 4 and 8 weeks, the decrease in wrinkles was quantified by 3D images analyzed by confocal microscopy.

[2] = Cutaneous penetration by Franz cell diffusion, HPLC quantification in the receptor solution; format: in vitro ADME; conditions: 20 h, pig skin, 32°C, receptor PBS pH 7.4, 25 µl applied
Description: Cutaneous penetration of free acetylhexapeptide-8 and encapsulated acetylhexapeptide-8 (nanocapsule of the present invention) was determined by means Franz cells diffusion. The pig skin samples were used to carry out the experiment, cut into circles 2.5 cm in diameter. The skin was assembled on the receptor compartment of a Franz diffusion cell system with the stratum corneum facing up towards the donor compartment. As a solution for the receptor, 18 ml of phosphate buffered saline (PBS) pH 7.4 stirred by a magnetic rod at 700 rpm were utilized. A 25 µl aliquot of each of the assay formulations was applied on the pig skin. The Franz diffusion cells were kept at 32°C, and after 20 h of incubation, the receptor solution was analyzed by HPLC (I=220 nm) to quantify the amount of acetylhexapeptide-8 was penetrated the skin. Triplicates of the assay were done.
HPLC analysis was performed utilizing a Waters 996 instrument with diode array detector equipped with Waters 2695 separations module and Millenium software; a C18 4.6x150 mm 5 µm reversed phase column by Waters was used. […]
The quantification of acetylhexapeptide-8 in the fluid (PBS) of the receptor chamber was evaluated through HPLC at 20 hours after application of 25 µL of the two solutions on the pig skin.

chromaffin cells = assay: Inhibition of Ca2+-induced catecholamine ([3H]noradrenaline) release in digitonin-permeabilized chromaffin cells; format: cell-based, bovine
Description: Chromaffin cell cultures were prepared from bovine adrenal glands by collagenase digestion and then separated from debris and erythrocytes by centrifugation. Briefly, the cells were maintained in monolayer cultures and used between the third and sixth day after plating. All the experiments were carried out at 37°C. Secreted neurotransmitter [^3H]noradrenaline was determined in cells permeabilized with digitonin. Neurotransmitter (catecholamines) release was stimulated by addition of 10 µM) Ca^2+.
To evaluate the enhancement of this activity of encapsulated Acetylhexapeptide-8, the inhibitory capacity on Ca^2+-induced catecholamine release was measured in digitonin-permeabilized chromaffin cells culture.
In particular, the activity of the free peptide free (acetylhexapeptide-8), the peptide encapsulated in Policaprolactone-Chitosan (Acetylhexapeptide-8@PCL-Chi) and the peptide encapsulated with sodium hyaluronate (HA) in PCL-Chi-HA (Acetylhexapeptide-8-HA@PCL-Chi-HA) (present invention) were compared.

[3] = Moisturizing efficacy: transepidermal water loss (TEWL) study by corneometry on forearms of volunteers; format: in vivo; conditions: forearm, women 45-50 years
Description: The transpidermal water loss (TEWL) study by corneometry was performed to compare the moisturizing activity of the composition of the present invention and its main components.
The assay was carried out on 20 women between the ages 45 and 50 years. None of the patients had suffered or had any medical history or relevant skin pathologies.
The volunteers were divided into four groups. Daily, for 7 days, the assigned sample was applied to one of the forearms of each group (group 1 sample with free sodium hyaluronate, group 2 sample with free Acetylhexapeptide-8, group 3 sample with free sodium hyaluronate and Acetylhexapeptide-8 and group 4 sample with complete encapsulation (Acetylhexapeptide-8, sodium hyaluronate, polycaprolactone and chitosan). The opposite forearm of each volunteer was the control.
Measurements were taken 2 hours and 7 days after the first application. Epidermal capacitance was evaluated using a CM 825 Corneometer, which allows quantification of surface humidity variations. Measurements were taken in an air-conditioned room (temperature 23°C, relative humidity 34.5%). […]
This trial compared the moisturizing capacity of free HA, free Acetylhexapeptide-8, free HA+Acetylhexapeptide-8 and the composition of the present invention (Acetylhexapeptide-8-HA@PCL-Chi-HA) by measuring the skin loss of water on the forearm of the volunteers analyzed. […]

% Penetration [2]: 14%
Substance: Acetylhexapeptide-8 [Free Acetylhexapeptide-8]
Wrinkles reduction (%) 4 wrinkles [1]: 20.5% | Wrinkles reduction (%) 4 wrinkles ([1]; listed as free Acetylhexapeptide-8): 20% | Wrinkles reduction (%) 8 wrinkles ([1]; at 8 weeks (end of treatment)): 30% | Decrease area affected by roughness (%) ([1]; at 8 weeks): 31.2% | Roughness volume decrease (%) ([1]; at 8 weeks): 35% | decrease in total catecholamine exocytosis / inhibition of the release of neurotransmitters (chromaffin cells; Ca2+-induced release, versus control): 20% | Cathecolamine release (%) (chromaffin cells; stimulated with 10 µM Ca2+, 37°C, control = 100): 80% | Tewl After 2 hours ([3]; 2 hours after first application, control 16): 15.8 g/m^2h | Tewl After 7 days ([3]; after 7 days of daily application, control 17): 16.5 g/m^2h

Source: patent EP4461287A1, “SKIN CARE COSMETIC COMPOSITION” (Creaciones Aromáticas Industriales, S.A., priority 2023, dated 2024)
